Results published in patent publication US20250197384A1, “AZOLE COMPOUND AND ANTIFUNGAL AGENT” (NIHON NOHYAKU CO., LTD., priority 2022, published 2025).

What was measured:
[1] = tested on: Candida albicans NBRC1270; assay: In vitro anti-Candida activity test; format: cell-based; conditions: 80% or more inhibition, unit inferred
Description: Candida albicans NBRC1270 was used as the strain. The test fungi were cultured on a Sabouraud dextrose agar slant medium at 35° C. for 24 hr, and then suspended in sterilized saline. The number of cells in this suspension was counted using a hemocytometer, and the same suspension was adjusted to a cell concentration of 1.5×10^5 cells/mL, and this was used as an inoculum. Each compound was dissolved in dimethyl sulfoxide to a predetermined concentration, and diluted 50-fold with 0.165 M MOPS buffered RPMI 1640 liquid medium, and each diluted solution was dispensed into a 96-well microplate by each 100 μL. The inoculum was diluted 50-fold with 0.165 M MOPS buffered RPMI 1640 liquid medium containing 20% alamar Blue™, and the diluted solution was inoculated into the 96-well microplate containing the compound by each 100 μL (final inoculum amount 1.5×10^3 cells/mL). After static culture at 35° C. for 24 hr, the degree of color development of the alamar Blue™ was measured using a microplate reader (O.D. 570-595 nm), and the minimum concentration showing 80% or more inhibition was defined as the minimum inhibitory concentration (MIC).

[2] = tested on: Aspergillus fumigatus TIMM0063; assay: In vitro anti-Aspergillus activity test; format: cell-based; conditions: 80% or more inhibition, unit inferred
Description: Aspergillus fumigatus TIMM0063 was used as the strain. The test fungi were cultured on a Potato dextrose agar slant medium at 35° C. for 4 days, and then sterilized saline containing 0.1% (v/v) Tween 80 was added to release the conidia. This conidial suspension was filtered through sterile gauze, and the number of conidia was counted using a hemocytometer. The same solution was adjusted to a conidial concentration of 1×10^6 conidia/mL, and this was used as an inoculum. Each compound was dissolved in dimethyl sulfoxide to a predetermined concentration, and diluted 50-fold with 0.165 M MOPS buffered RPMI 1640 liquid medium, and each diluted solution was dispensed into a 96-well microplate by each 100 μL. The inoculum was diluted 50-fold with 0.165 M MOPS buffered RPMI 1640 liquid medium containing 20% alamar Blue™, and the diluted solution was inoculated into the 96-well microplate containing the compound by each 100 μL (final inoculum amount 1.0×10^4 conidia/mL). After static culture at 35° C. for 48 hr, the degree of color development of the alamar Blue™ was measured using a microplate reader (O.D. 570-595 nm), and the minimum concentration showing 80% or more inhibition was defined as the minimum inhibitory concentration (MIC).

| C. albicans (MIC) ([1]; Table 23, 35° C. for 24 hr) [ng/mL] | A. fumigatus (MIC) ([2]; Table 23, 35° C. for 48 hr) [ng/mL] | C. albicans (MIC) ([1]; Table 24, 35° C. for 24 hr) [ng/mL] | A. fumigatus (MIC) ([2]; Table 24, 35° C. for 48 hr) [ng/mL] | Compound |
| --- | --- | --- | --- | --- |
| 5 | 10 |  |  | N#C/C(=C1/SCC(c2ncc(NC(=O)OCC3CC3)cc2F)S1)n1cncn1 (racemic) [compound 103] |
| 5 | 10 |  |  | N#C/C(=C1/SCC(c2ncc(NC(=O)OCC3CC(F)(F)C3)cc2Cl)S1)n1cncn1 (racemic) [compound 107] |
|  |  | 10 | 10 | N#C/C(=C1/SCC(c2ncc(NC(=O)OCc3ccncc3F)cc2Cl)S1)n1cncn1 (racemic) [compound 114] |
|  |  | 5 | 10 | N#C/C(=C1/SCC(c2ncc(NC(=O)OCc3ccnc(F)c3)cc2Cl)S1)n1cncn1 (racemic) [compound 115] |
|  |  | 1.25 | 5 | CC1CC1COC(=O)Nc1cnc(C2CS/C(=C(/C#N)n3cncn3)S2)c(Cl)c1 (racemic) [compound 118] |
|  |  | 10 | 10 | N#C/C(=C1/SCC(c2ncc(NC(=O)OCC3CC3(F)F)cc2F)S1)n1cncn1 (racemic) [compound 128] |
|  |  | 1.25 | 2.5 | N#CC(=C1SCC(c2ncc(C=NOCC3CC3)cc2Cl)S1)n1cncn1 (racemic) [compound 139] |
|  |  | 2.5 | 2.5 | N#CC(=C1SCC(c2ncc(C=NOCC3CC3)cc2F)S1)n1cncn1 (racemic) [compound 140] |
|  |  | 2.5 | 2.5 | CCCON=Cc1cnc(C2CSC(=C(C#N)n3cncn3)S2)c(Cl)c1 (racemic) [compound 141] |
|  |  | 2.5 | 10 | CC(C)ON=Cc1cnc(C2CSC(=C(C#N)n3cncn3)S2)c(Cl)c1 (racemic) [compound 142] |

More lines, now with the values behind:

| Compound | C. albicans (MIC) ([1]; Table 23, 35° C. for 24 hr) [ng/mL] | A. fumigatus (MIC) ([2]; Table 23, 35° C. for 48 hr) [ng/mL] | C. albicans (MIC) ([1]; Table 24, 35° C. for 24 hr) [ng/mL] | A. fumigatus (MIC) ([2]; Table 24, 35° C. for 48 hr) [ng/mL] |
| --- | --- | --- | --- | --- |
| N#C/C(=C1/SCC(c2ncc(NC(=O)OCc3ncc(F)cc3F)cc2Cl)S1)n1cncn1 (racemic) [compound 75] | 10 | 10 |  |  |
| CC(C)COC(=O)Nc1cnc(C2CS/C(=C(/C#N)n3cncn3)S2)c(Cl)c1 (racemic) [compound 83] | 5 | 10 |  |  |
| CCCOC(=O)Nc1cnc(C2CS/C(=C(/C#N)n3cncn3)S2)c(Cl)c1 (racemic) [compound 84] | 5 | 5 |  |  |
| N#C/C(=C1/SCC(c2ncc(NC(=O)OCC3CC3)cc2Cl)S1)n1cncn1 (racemic) [compound 87] | 1.25 | 5 |  |  |
| N#C/C(=C1/SCC(c2ncc(NC(=O)OCc3ccc(F)cc3)cc2Cl)S1)n1cncn1 (racemic) [compound 89] | 2.5 | 10 |  |  |
| N#C/C(=C1/SCC(c2ncc(NC(=O)OCC3CC3(F)F)cc2Cl)S1)n1cncn1 (racemic) [compound 96] | 5 | 10 |  |  |
| N#C/C(=C1/SCC(c2ncc(NC(=O)OCC3CCC3)cc2Cl)S1)n1cncn1 (racemic) [compound 97] | 2.5 | 10 |  |  |
| N#C/C(=C1/SCC(c2ncc(NC(=O)OCc3cccc(F)c3)cc2Cl)S1)n1cncn1 (racemic) [compound 98] | 2.5 | 5 |  |  |
| N#C/C(=C1/SCC(c2ncc(NC(=O)OCc3ccccc3F)cc2Cl)S1)n1cncn1 (racemic) [compound 99] | 2.5 | 5 |  |  |
